Data from patent publication US4902678A, “Anti-viral compositions” (priority 1988, dated 1990).

Legend:
human herpesviruses = settings: cited from earlier work
[1] = tested on: herpes virus-specific DNA-polymerase (DP); settings: hypothesis on mode of action; cited from earlier work
[2] = tested on: Cellular TK and DP enzymes; settings: cited from earlier work
HSV-1-Patton = test: Plaque reduction / viral plaque titration, HSV-1-Patton in HFF cells
Procedure: (§1) Human fetal fibroblasts (HFF) derived from fetal tissues were used in this study. Cells were grown and maintained in Basal Medium Eagle (BME) supplemented with 0.112% sodium bicarbonate, 2mML-glutamine, 2mg % Neomycin and 20% (vol/vol) calf serum.
(§2) A viral plaque titration method (Roizman and Roane, 1961) was used to deteremine the titer of the HSV strain. Tissue culture dishes (35 by 10mm, Corning) were seeded with cells and used for assays when they were approximately 75% monolayer. Volumes (0.2ml) of logarithmic dilutions of the virus strain were inoculated onto each of two tissue culture dishes and adsorbed for 1 hr with intermittent shaking, the inoculum was removed and 2ml of 20% BME containing 0.5% human immune serum globulin was added. After a 48 hr. incubation period at 36° C. in a 5% CO2 atmosphere, the overlay medium was removed, and the cell sheets were stained with a 0.05% aqueous crystal violet solution. The plaque numbers were counted with the aid of a Nikon profile projector which magnified the dishes 10X. Duplicate results were averaged, and the number of plaque-forming units (PFU) was calculated. The virus titre is thus expressed as a number of plaque forming units to be seen after growth under these conditions.
As antiviral drugs in these experiments, there were used acycloguanosine (ACG), phosphonoacetic acid (PAA), bromovinyl deoxyuridine (BVDU), phosphonoformic acid (PFA) and 9-[[2-hydroxy-1-(hydroxymethyl)ethoxy]methyl]guanine (G*). Stock solutions, 3mg/ml, of each drug were prepared as follows, kept at -20° C., and appropriate dilutions thereof were made in 20% BME just before usage:
In order to make comparisons between the activities of the various drugs and combinations, experiments were conducted by plaque titration to determine for each drug its viral ED-50 (i.e. the concentration thereof which inhibits HSV plaque formation by 50% in the HFF cells, as compared with cell cultures in the absence of the drug). For this purpose, tissue culture dishes (35 by 10 mm) with HFF cell monolayers at 75% confluence were inoculated with approximately 50 plaque-forming units of virus per 0.2 ml, and the virus was allowed to adsorb for 1 hr with intermittent shaking. After removal of the inoculum, 2 ml of 20% BME with 0.5% immune globulin and threefold dilutions of the appropriate drug were added to duplicate dishes. One set of dishes received no drug and was later used for the "no-drug control". After a 48 hr incubation period at 36° C. in a 5% CO2 atmosphere, the overlay medium was removed, the cells were stained as described above, and plaques were counted. After averaging the counts of duplicate plates, the fraction of plaques emerging in the presence of each drug dilution was calculated as a percent of the control. Each drug titration was plotted on semilogarithmic graph paper, with the number of plaques per dish as vertical axis and the drug concentration as horizontal axis. The viral ED-50 concentration was that amount of drug per ml of overlay medium that inhibited plaque numbers by 50%, compared with no-drug controls, and this was read off the graphic plot of the data.
Then combinations of the drugs were tested for activity by viral plaque titration, at concentrations which were multiples of the ED-50, of the individual drugs. In combinations involving G*, BVDU and AGC, a concentration ten times that of its ED-50 was used in the combination. […] In respect of PAA, a concentration of five times ED-50 was used, to avoid cell toxicity problems.

[3] = tested on: herpes virus-specific thymidine kinase (TK); settings: hypothesis on mode of action; cited from earlier work
[4] = tested on: HSV mutants lacking the ability to induce DP (DP-mutants); settings: cited from earlier work
normal host cells = settings: cited from earlier work
HSV-2-EL 4 = test: Viral plaque titration, HSV-2-EL 4 in HFF cells; settings: alone or combined; for Virus titer: no-drug control 750
Procedure: as §1
(§3) HSV-2-EL 1, HSV-2-EL 3, HSV-2-EL 4, HSV-2-EL 6, HSV-1-EL 11 and HSV-1-227 are recent clinical isolates.
as §2
(§4) Then combinations of the drugs were tested for activity by viral plaque titration, at concentrations which were multiples of the ED-50, of the individual drugs. In combinations involving G*, BVDU and AGC, a concentration ten times that of its ED-50 was used in the combination. This was intended to ensure a concentration sufficiently high to limit the number of partially drug-resistant virus plaques to a small fraction in respect of each drug of the combination. In respect of PAA, a concentration of five times ED-50 was used, to avoid cell toxicity problems. The drugs were individually plaque titrated at the same concentrations for comparison purposes.
(§5) In this example, combinations of G* and phosphonoformic acid PFA were tested, by plaque titration methods, for activity against a variety of herpesvirus strains in HFF cells, using procedures previously described. A stock solution of PFA was made up ahead of time, by dissolving 3 mg PFA in 1 ml of 20% BME, and stored at -20° C. It was appropriately diluted in 20% BME just before usage. Two herpesvirus type 2 strains and one herpesvirus type 1 strain were tested.
(§6) The experiments described in Examples 1 and 2 were essentially repeated, but using the drugs G* and PAA alone and in combinations against samples of HFF cells each infected with one of six HSV strains, two of which were type 1 and four of which were type 2. Plaque titration methods as described above were used.

[5] = tested on: HSV mutants lacking the ability to induce DP (DP-mutants); test: Activity against HSV mutants lacking the ability to induce DP (statement); parameters: species or system Herpes simplex virus
HSV-1-227 = test: Viral plaque titration, HSV-1-227 in HFF cells; settings: Table 3, G* 2.0 μg/ml, PAA 80 μg/ml, alone or combined; for Virus titer: no-drug control 28
Procedure: as §1, §3, §2, §4, §6

HSV-1-EL 11 = settings: Table 3, HFF cells, G* 0.4 μg/ml, PAA 25 μg/ml, alone or combined; for Virus titer: no-drug control 8.0
Procedure: as §1, §3, §2, §4, §6

HSV-2-EL 6 = test: Viral plaque titration, HSV-2-EL 6 in HFF cells; settings: alone or combined
Procedure: as §1, §3, §2, §4, §5, §6

HSV-2-EL 1 = settings: Table 3, HFF cells, G* 2.0 μg/ml, PAA 76 μg/ml, alone or combined; for Virus titer: no-drug control 170
Procedure: as §1, §3, §2, §4, §6

HSV-2-EL 3 = test: Viral plaque titration, HSV-2-EL 3 in HFF cells; settings: Table 3, G* 2.0 μg/ml, PAA 82 μg/ml, alone or combined; for Virus titer: no-drug control 77
Procedure: as §1, §3, §2, §4, §6

[6] = topical formulation, drug concentrations in excess of 100mM; cited from earlier work
[7] = Table 1, multiplicity of infection less than one, G* 1.2, BVDU 0.11, ACG 2.0, PAA 250 μg/ml alone, same concentrations in combinations, no-drug control 147
[8] = Table 1, ratio of control titer to drug titer, G* 1.2, BVDU 0.11, ACG 2.0, PAA 250 μg/ml alone, same concentrations in combinations
[9] = Table 2, G* 3.0 μg/ml, PFA 80 μg/ml
[10] = Table 3, G* 2.0 μg/ml, PAA 90 μg/ml
[11] = Table 2, G* 0.7 μg/ml, PFA 80 μg/ml, alone or combined
[12] = Table 2, G* 0.7 μg/ml, PFA 80 μg/ml, alone or combined, no-drug control 3400
[13] = Table 2, G* 0.7 μg/ml, PFA 80 μg/ml
[14] = Table 2, G* 0.7 μg/ml, PFA 80 μg/ml, no-drug control 150
[15] = Table 3, G* 0.6 μg/ml, PAA 90 μg/ml
[16] = Table 3, G* 0.6 μg/ml, PAA 90 μg/ml, no-drug control 180

Structure (SMILES): O=CC[C@@H](O)[C@H](O)[C@H](O)CO [2DB, 2-deoxy-D-glucose]
- Activity against herpesviruses in prior art (human herpesviruses): some demonstrated activity against human herpesviruses

Structure (SMILES): Nc1nc2c(ncn2COCCO)c(=O)[nH]1 [ACG, 9-[2-hydroxyethoxymethyl]guanine]
- Activity against herpesviruses in prior art (human herpesviruses): relatively high antiviral activity
- Interaction with viral DNA polymerase [1]: inhibits the action of the herpes virus-specific DNA-polymerase (DP)
- Effect on cellular TK and DP enzymes [2]: only slightly affected
- Virus titer (HSV-1-Patton; [7]): 4.7 PFU/ml × 10^5
- Fold titer reduction (HSV-1-Patton; [8]): 31 fold
- Interaction with viral thymidine kinase [3]: interaction with the herpes virus-specific thymidine kinase (TK) resulting in phosphorylation of the acycloguanosine
- Resistance of DP-mutants of HSV to drug [4]: highly resistant
- Toxicity for uninfected cells (normal host cells): relatively low toxicity for uninfected cells

Structure (SMILES): O=c1[nH]c(=O)n([C@H]2C[C@H](O)[C@@H](CO)O2)cc1/C=C/Br [BVDU, bromovinyl deoxyuridine]
- Virus titer (HSV-1-Patton; [7]): 2.1 PFU/ml × 10^5
- Fold titer reduction (HSV-1-Patton; [8]): 70 fold

Structure (SMILES): Nc1nc2c(ncn2COC(CO)CO)c(=O)[nH]1 [G*]
- Fold titer reduction (HSV-2-EL 4; [9]): 36 fold
- Virus titer (HSV-2-EL 4; [9]): 21 pfu/ml × 10^5
- Fold titer reduction (HSV-2-EL 4; [10]): 130 fold
- Virus titer (HSV-2-EL 4; [10]): 5.9 pfu/ml × 10^5
- Inhibition of DP-mutants of HSV [5]: able to inhibit HSV mutants lacking the ability to induce DP
- Interaction with viral DNA polymerase [1]: not involved in the activity of virus-specific DNA-polymerase
- Virus titer (HSV-1-Patton; [7]): 1.1 PFU/ml × 10^5
- Fold titer reduction (HSV-1-Patton; [8]): 130 fold
- Fold titer reduction (HSV-1-Patton; [11]): 24 fold
- Virus titer (HSV-1-Patton; [12]): 140 pfu/ml × 10^5
- Interaction with viral thymidine kinase [3]: inhibits the activity of the viral thymidine kinase enzyme
- Fold titer reduction (HSV-1-227): 110 fold
- Virus titer (HSV-1-227): 0.25 pfu/ml × 10^5
- Fold titer reduction (HSV-1-EL 11): 22 fold
- Virus titer (HSV-1-EL 11): 0.37 pfu/ml × 10^5
- Fold titer reduction (HSV-2-EL 6; [13]): 3.8 fold
- Virus titer (HSV-2-EL 6; [14]): 40 pfu/ml × 10^5
- Fold titer reduction (HSV-2-EL 6; [15]): 200 fold
- Virus titer (HSV-2-EL 6; [16]): 0.90 pfu/ml × 10^5
- Fold titer reduction (HSV-2-EL 1): 19 fold
- Virus titer (HSV-2-EL 1): 8.9 pfu/ml × 10^5
- Fold titer reduction (HSV-2-EL 3): 7.7 fold
- Virus titer (HSV-2-EL 3): 10.0 pfu/ml × 10^5

Structure (SMILES): O=c1[nH]c(=O)n([C@H]2C[C@H](O)[C@@H](CO)O2)cc1I [IDU, 5-iododeoxyuridine]
- Activity against herpesviruses in prior art (human herpesviruses): effective only against herpes infections of the eyes
- Side effects / toxicity to normal cells (normal host cells; prior art): undesirable side effects, associated with toxicity to normal cells

Structure (SMILES): O=C(O)CP(=O)(O)O [PAA, phosphonoacetic acid]
- Fold titer reduction (HSV-2-EL 4; [10]): 7500 fold
- Virus titer (HSV-2-EL 4; [10]): 0.10 pfu/ml × 10^5
- Activity against herpesviruses in prior art (human herpesviruses): some demonstrated activity against human herpesviruses
- Interaction with viral DNA polymerase [1]: interference with viral DNA polymerase, not viral thymidine kinase
- Virus titer (HSV-1-Patton; [7]): 3.2 PFU/ml × 10^5
- Fold titer reduction (HSV-1-Patton; [8]): 50 fold
- Fold titer reduction (HSV-1-227): 26 fold
- Virus titer (HSV-1-227): 1.1 pfu/ml × 10^5
- Resistance of DP-mutants of HSV to drug [4]: highly resistant
- Fold titer reduction (HSV-1-EL 11): 2.9 fold
- Virus titer (HSV-1-EL 11): 2.8 pfu/ml × 10^5
- Fold titer reduction (HSV-2-EL 6; [15]): 5.8 fold
- Virus titer (HSV-2-EL 6; [16]): 31.0 pfu/ml × 10^5
- Fold titer reduction (HSV-2-EL 1): 500 fold
- Virus titer (HSV-2-EL 1): 0.34 pfu/ml × 10^5
- Fold titer reduction (HSV-2-EL 3): 210 fold
- Virus titer (HSV-2-EL 3): 0.36 pfu/ml × 10^5
- Skin irritation [6]: skin irritant

Structure (SMILES): O=C(O)P(=O)(O)O [PFA, phosphonoformic acid]
- Fold titer reduction (HSV-2-EL 4; [9]): 2,700 fold
- Virus titer (HSV-2-EL 4; [9]): 0.28 pfu/ml × 10^5
- Activity against herpesviruses in prior art (human herpesviruses): some demonstrated activity against human herpesviruses
- Interaction with viral DNA polymerase [1]: interference with viral DNA polymerase, not viral thymidine kinase
- Fold titer reduction (HSV-1-Patton; [11]): 4.5 fold
- Fold titer reduction (HSV-1-Patton; Table 2, G* 0.7 μg/ml, PFA 80 μg/ml, alone or combined, listed as PFF): 750 fold
- Virus titer (HSV-1-Patton; [12]): 750 pfu/ml × 10^5
- Fold titer reduction (HSV-2-EL 6; [13]): 3.1 fold
- Virus titer (HSV-2-EL 6; [14]): 48 pfu/ml × 10^5
- Skin irritation [6]: do not appear harmful

Structure (SMILES): Nc1ncnc2c1ncn2[C@@H]1O[C@H](CO)[C@@H](O)[C@@H]1O [ara-A, Adenine arabinoside]
- Activity against herpesviruses in prior art (human herpesviruses): some demonstrated activity against human herpesviruses
